Laboratory results from patent US11426412B2, “Imidazo-pyridine compounds as PAD inhibitors” (JUBILANT EPIPAD LLC, priority 2017, dated 2022).
Where a name gives a salt, the structure may show the parent alone. Read-outs that look alike come from different tables or passages of the source.

Biological target: PAD4 (Homo sapiens (Human), UniProt Q9UM07)
Test: Ammonia release biochemical assay (citrullination)
[1] = read-out: NH3 release biochemical assay PAD4 IC50

Chain of PAD4 (Q9UM07 whole entry): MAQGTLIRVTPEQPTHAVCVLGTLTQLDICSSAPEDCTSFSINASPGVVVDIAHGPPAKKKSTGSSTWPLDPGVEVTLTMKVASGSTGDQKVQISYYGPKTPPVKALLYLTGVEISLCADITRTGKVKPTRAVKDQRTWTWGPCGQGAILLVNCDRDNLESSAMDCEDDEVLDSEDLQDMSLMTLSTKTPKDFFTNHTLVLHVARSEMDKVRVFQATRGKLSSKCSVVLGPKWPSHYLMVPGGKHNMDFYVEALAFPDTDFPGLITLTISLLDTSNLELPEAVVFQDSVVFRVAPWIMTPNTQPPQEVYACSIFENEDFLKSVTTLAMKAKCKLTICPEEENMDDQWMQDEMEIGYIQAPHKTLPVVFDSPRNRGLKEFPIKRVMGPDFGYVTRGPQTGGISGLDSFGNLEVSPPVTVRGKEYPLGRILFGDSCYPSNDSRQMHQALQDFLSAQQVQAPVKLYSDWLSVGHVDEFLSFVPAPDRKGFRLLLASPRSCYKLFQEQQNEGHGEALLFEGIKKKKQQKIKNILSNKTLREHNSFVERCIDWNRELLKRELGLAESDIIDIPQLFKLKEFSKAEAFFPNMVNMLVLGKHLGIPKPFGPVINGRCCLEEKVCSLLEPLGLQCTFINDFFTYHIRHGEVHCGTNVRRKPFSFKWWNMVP

Row | SMILES | IC50 [1] [µM] | IC50 (Table 1, class A, read-out: IC50 value, ammonia release biochemical assay) [µM]
1 | CCn1c(-c2nc3cc(C(=O)N4CCC[C@@H](N)C4)ccn3c2C)cc2ccc(F)cc21 [Compound 72, (R)-(3-aminopiperidin-1-yl)(2-(1-ethyl-6-fluoro-1H-indol-2-yl)-3-methylimidazo[1,2-a]pyridin-7-yl)methanone] | < 1 | 
2 | Cc1c(-c2cc3ccc(F)cc3n2CC(C)C)nc2cc(C(=O)N3CCC[C@@H](N)C3)ccn12 [Compound 73, (R)-(3-aminopiperidin-1-yl)(2-(6-fluoro-1-isobutyl-1H-indol-2-yl)-3-methylimidazo[1,2-a]pyridin-7-yl)methanone] | < 1 | 
3 | COc1cccc(Cn2c(-c3nc4cc(C(=O)N5CCC[C@@H](N)C5)ccn4c3C)cc3ccc(F)cc32)c1 [Compound 70, (R)-(3-aminopiperidin-1-yl)(2-(6-fluoro-1-(3-methoxybenzyl)-1H-indol-2-yl)-3-methylimidazo[1,2-a]pyridin-7-yl)methanone] | < 1 | 
4 | COc1ccc2cc(-c3nc4cc(C(=O)N5CCC[C@@H](N)C5)ccn4c3C)n(Cc3ccc(F)cc3)c2c1 [Compound 80, (R)-(3-aminopiperidin-1-yl)(2-(1-(4-fluorobenzyl)-6-methoxy-1H-indol-2-yl)-3-methylimidazo[1,2-a]pyridin-7-yl)methanone] | < 1 | 
5 | CCn1c(-c2nc3cc(C(=O)N4CCC[C@@H](N)C4)ccn3c2C)c(-c2ccccc2)c2ccccc21 [Compound 5, (R)-(3-Aminopiperidin-1-yl)(2-(1-ethyl-3-phenyl-1H-indol-2-yl)-3-methylimidazo[1,2-a]pyridin-7-yl)methanone] | > 10 | 
6 | Cc1c(-c2cc3cc(F)ccc3n2Cc2ccncc2)nc2cc(C(=O)N3CCC[C@@H](N)C3)ccn12 [Compound 74, (R)-(3-aminopiperidin-1-yl)(2-(5-fluoro-1-(pyridin-4-ylmethyl)-1H-indol-2-yl)-3-methylimidazo[1,2-a]pyridin-7-yl)methanone] | < 1 | 
7 | Cc1c(-c2cc3cccc(Cl)c3n2Cc2ccc(F)cc2)nc2cc(C(=O)N3CCC[C@@H](N)C3)ccn12 [Compound 77, (R)-(3-aminopiperidin-1-yl)(2-(7-chloro-1-(4-fluorobenzyl)-1H-indol-2-yl)-3-methylimidazo[1,2-a]pyridin-7-yl)methanone] | < 1 | 

The next lines start with the values.

Row | IC50 [1] [µM] | IC50 (Table 1, class A, read-out: IC50 value, ammonia release biochemical assay) [µM] | SMILES
8 | > 10 |  | Cc1c(-c2cc3ccccc3n2C)nc2cc(C(=O)N3CCC[C@@H](N)C3)ccn12 [Compound 46, (R)-(3-aminopiperidin-1-yl)(3-methyl-2-(1-methyl-1H-indol-2-yl)imidazo[1,2-a]pyridin-7-yl)methanone]
9 | < 1 |  | Cc1c(-c2cc3ccccc3n2CC(F)F)nc2cc(C(=O)N3CCC[C@@H](N)C3)ccn12 [Compound 78, (R)-(3-aminopiperidin-1-yl)(2-(1-(2,2-difluoroethyl)-1H-indol-2-yl)-3-methylimidazo[1,2-a]pyridin-7-yl)methanone Trifluoroacetic Acid Salt]
10 | < 1 | ≤ 1 | COc1cc(Cn2c(-c3nc4cc(C(=O)N5CCC[C@@H](N)C5)ccn4c3C)cc3ccccc32)ccc1F [Compound 85, (R)-(3-aminopiperidin-1-yl)(2-(1-(4-fluoro-3-methoxybenzyl)-1H-indol-2-yl)-3-methylimidazo[1,2-a]pyridin-7-yl)methanone]
11 | < 1 |  | Cc1c(-c2cc3ccccc3n2Cc2cccc(F)c2)nc2cc(C(=O)N3CCC[C@@H](N)C3)ccn12 [Compound 35, (R)-(3-aminopiperidin-1-yl)(2-(1-(3-fluorobenzyl)-1H-indol-2-yl)-3-methylimidazo[1,2-a]pyridin-7-yl)methanone]
12 | < 1 |  | COCCn1c(-c2nc3cc(C(=O)N4CCC[C@@H](N)C4)ccn3c2C)cc2ccccc21 [Compound 64, (R)-(3-aminopiperidin-1-yl) (2-(1-(2-methoxyethyl)-1H-indol-2-yl)-3-methylimidazo[1,2-a]pyridin-7-yl)methanone]
